In brackets after ≈: the same amount, converted by molar mass. Like-named read-outs stand apart in the source and are kept apart here.
Tests used:
Test in all cases: MIC, microdilution broth method (NCCLS)
Assay type in all cases: cell-based
E. coli OC2605 = settings: A: E. coli OC2605, 35° C., 16-20 hours
Method: (§1) Minimal inhibitory concentration (MIC) has been an indicator of in vitro antibacterial activity widely used in the art. The in vitro antimicrobial activity of the compounds was determined by the microdilution broth method following the test method from the National Committee for Clinical Laboratory Standards (NCCLS). This method is described in the NCCLS Document M7-A4, Vol. 17, No. 2, “Methods for Dilution Antimicrobial Susceptibility Test for Bacteria that Grow Aerobically—Fourth Edition”, which is incorporated herein by reference.
(§2) In this method two-fold serial dilutions of drug in cation adjusted Mueller-Hinton broth are added to wells in microdilution trays. The test organisms are prepared by adjusting the turbidity of actively growing broth cultures so that the final concentration of test organism after it is added to the wells is approximately 5×10^4 CFU/well.
(§3) Following inoculation of the microdilution trays, the trays are incubated at 35° C. for 16-20 hours and then read. […] The amount of growth in the wells containing the test compound is compared with the amount of growth in the growth-control wells (no test compound) used in each tray. As set forth in Table 1, compounds of the present invention were tested against a variety of Gram positive and Gram negative pathogenic bacteria resulting in a range of activities depending on the organism tested.

S. aureus ATCC29213 = settings: B: S. aureus ATCC29213, 35° C., 16-20 hours
Method: as §1, §2, §3

S. pneumoniae ATCC49619 = settings: D: S. pneumoniae ATCC49619, 35° C., 16-20 hours
Method: as §1, §2, §3

E. faecalis ATCC29212 = settings: C: E. faecalis ATCC29212, 35° C., 16-20 hours
Method: as §1, §2, §3

H. influenzae ATCC49247 = settings: E: H. influenzae ATCC49247, 35° C., 16-20 hours
Method: as §1, §2, §3

MIC (E. coli OC2605)	MIC (S. aureus ATCC29213)	MIC (S. pneumoniae ATCC49619)	MIC (E. faecalis ATCC29212)	MIC (H. influenzae ATCC49247)	MIC (E. coli OC2605; Escherichia coli, read-out: MIC)	MIC (S. aureus ATCC29213; Staphylococcus aureus, read-out: MIC)	MIC (S. pneumoniae ATCC49619; Streptococcus pneumoniae, read-out: MIC)	MIC (E. faecalis ATCC29212; Enterococcus faecalis, read-out: MIC)	Compound
16 µg/mL (≈ 20.1 µM)	0.5 µg/mL (≈ 0.627 µM)	0.03 µg/mL (≈ 0.0376 µM)	0.06 µg/mL (≈ 0.0752 µM)	4 µg/mL (≈ 5.01 µM)	–	–	–	–	CC[C@H]1OC(=O)[C@H](C)C(=O)[C@H](C)[C@@H](O[C@@H]2O[C@H](C)C[C@H](N(C)C)[C@H]2O)[C@](C)(OC(=O)NCc2ccc(-n3cccn3)cc2)C[C@@H](C)C(=O)[C@H](C)[C@H]2NC(=O)O[C@@]21C [Compound 7]
–	–	–	–	–	16 µg/mL (≈ 19.1 µM)	0.12 µg/mL (≈ 0.144 µM)	0.06 µg/mL (≈ 0.0718 µM)	0.06 µg/mL (≈ 0.0718 µM)	CC[C@H]1OC(=O)[C@H](C)C(=O)[C@H](C)[C@@H](O[C@@H]2O[C@H](C)C[C@H](N(C)C)[C@H]2O)[C@](C)(OC(=O)NC/C=C/c2ccc(-c3ncccn3)cc2)C[C@@H](C)C(=O)[C@H](C)[C@H]2NC(=O)O[C@@]21C [Compound 32, Carbamic acid, [(2E)-3-[4-(2-pyrimidinyl)phenyl]-2-propenyl]-, (3aS,4R,7R,9R,10R,11R,13R,15R,15aR)-4-ethyltetradecahydro-3a,7,9,11,13,15-hexamethyl-2,6,8,14-tetraoxo-10-[[3,4,6-trideoxy-3-(dimethylamino)-β-D-xylo-hexopyranosyl]oxy]-2H-oxacyclotetradecino[4,3-d]oxazol-11-yl ester]
8 µg/mL (≈ 9.7 µM)	0.12 µg/mL (≈ 0.145 µM)	≦0.015 μg/mL	0.06 µg/mL (≈ 0.0727 µM)	–	–	–	–	–	CC[C@H]1OC(=O)[C@H](C)C(=O)[C@H](C)[C@@H](O[C@@H]2O[C@H](C)C[C@H](N(C)C)[C@H]2O)[C@](C)(OC(=O)NC/C=C/c2ccc(-n3ccnn3)cc2)C[C@@H](C)C(=O)[C@H](C)[C@H]2NC(=O)O[C@@]21C [Compound 33]
8 µg/mL (≈ 9.89 µM)	0.12 µg/mL (≈ 0.148 µM)	≦0.015 μg/mL	0.06 µg/mL (≈ 0.0742 µM)	–	–	–	–	–	CC[C@H]1OC(=O)[C@H](C)C(=O)[C@H](C)[C@@H](O[C@@H]2O[C@H](C)C[C@H](N(C)C)[C@H]2O)[C@](C)(OC(=O)NC/C=C/c2ccnc3ccccc23)C[C@@H](C)C(=O)[C@H](C)[C@H]2NC(=O)O[C@@]21C [Compound 34]

Further lines, the compound ahead of its results:

Compound	MIC (E. coli OC2605)	MIC (S. aureus ATCC29213)	MIC (S. pneumoniae ATCC49619)	MIC (E. faecalis ATCC29212)	MIC (H. influenzae ATCC49247)	MIC (E. coli OC2605; Escherichia coli, read-out: MIC)	MIC (S. aureus ATCC29213; Staphylococcus aureus, read-out: MIC)	MIC (S. pneumoniae ATCC49619; Streptococcus pneumoniae, read-out: MIC)	MIC (E. faecalis ATCC29212; Enterococcus faecalis, read-out: MIC)
CC[C@H]1OC(=O)[C@H](C)C(=O)[C@H](C)[C@@H](O[C@@H]2O[C@H](C)C[C@H](N(C)C)[C@H]2O)[C@](C)(OC(=O)NCc2ccccc2)C[C@@H](C)C(=O)[C@H](C)[C@H]2NC(=O)O[C@@]21C [Compound 1]	>16 µg/mL	4 µg/mL (≈ 5.47 µM)	0.03 µg/mL (≈ 0.041 µM)	0.12 µg/mL (≈ 0.164 µM)	–	–	–	–	–
CC[C@H]1OC(=O)[C@H](C)C(=O)[C@H](C)[C@@H](O[C@@H]2O[C@H](C)C[C@H](N(C)C)[C@H]2O)[C@](C)(OC(=O)NCCCc2ccccc2)C[C@@H](C)C(=O)[C@H](C)[C@H]2NC(=O)O[C@@]21C [Compound 2]	16 µg/mL (≈ 21.1 µM)	1 µg/mL (≈ 1.32 µM)	0.06 µg/mL (≈ 0.079 µM)	0.25 µg/mL (≈ 0.329 µM)	2 µg/mL (≈ 2.63 µM)	–	–	–	–
CC[C@H]1OC(=O)[C@H](C)C(=O)[C@H](C)[C@@H](O[C@@H]2O[C@H](C)C[C@H](N(C)C)[C@H]2O)[C@](C)(OC(=O)NCCc2ccccc2)C[C@@H](C)C(=O)[C@H](C)[C@H]2NC(=O)O[C@@]21C [Compound 3]	>16 µg/mL	4 µg/mL (≈ 5.36 µM)	0.12 µg/mL (≈ 0.161 µM)	1 µg/mL (≈ 1.34 µM)	8 µg/mL (≈ 10.7 µM)	–	–	–	–
CC[C@H]1OC(=O)[C@H](C)C(=O)[C@H](C)[C@@H](O[C@@H]2O[C@H](C)C[C@H](N(C)C)[C@H]2O)[C@](C)(OC(=O)NC/C=C/c2ccccc2)C[C@@H](C)C(=O)[C@H](C)[C@H]2NC(=O)O[C@@]21C [Compound 4]	>16 µg/mL	0.25 µg/mL (≈ 0.33 µM)	0.03 µg/mL (≈ 0.0396 µM)	0.12 µg/mL (≈ 0.158 µM)	1 µg/mL (≈ 1.32 µM)	–	–	–	–
CC[C@H]1OC(=O)[C@H](C)C(=O)[C@H](C)[C@@H](O[C@@H]2O[C@H](C)C[C@H](N(C)C)[C@H]2O)[C@](C)(OC(=O)NCc2ccc(Br)cc2)C[C@@H](C)C(=O)[C@H](C)[C@H]2NC(=O)O[C@@]21C [Compound 5]	>16 µg/mL	0.5 µg/mL (≈ 0.617 µM)	0.03 µg/mL (≈ 0.037 µM)	0.25 µg/mL (≈ 0.308 µM)	–	–	–	–	–
CC[C@H]1OC(=O)[C@H](C)C(=O)[C@H](C)[C@@H](O[C@@H]2O[C@H](C)C[C@H](N(C)C)[C@H]2O)[C@](C)(OC(N)=O)C[C@@H](C)C(=O)[C@H](C)[C@H]2NC(=O)O[C@@]21C [Compound 6]	>16 µg/mL	4 µg/mL (≈ 6.23 µM)	0.12 µg/mL (≈ 0.187 µM)	1 µg/mL (≈ 1.56 µM)	–	–	–	–	–
